This assay addresses T1, CBL-B (Homo sapiens, UniProt Q13191).
T1 construct: GST
Nature of the assay: CBL-B TR-FRET IC50 screening (E1/E2 ubiquitination, Biotin-Ubiquitin, Anti GST-Tb donor / Streptavidin-d2 acceptor). Type of assay: biochemical. The note with it: CBL-B 10 nM final; 11-point titration from 100 uM; binned A-F; read-out: CBL-B TR-FRET activity IC50.

For 23 compounds, IC50 results are on record in patent publication US20240228482A1, “COMPOUNDS, COMPOSITIONS AND METHODS OF TREATING CANCER” (HOTSPOT THERAPEUTICS, INC., priority 2021, published 2024).

T1 sequence (Q13191 whole entry): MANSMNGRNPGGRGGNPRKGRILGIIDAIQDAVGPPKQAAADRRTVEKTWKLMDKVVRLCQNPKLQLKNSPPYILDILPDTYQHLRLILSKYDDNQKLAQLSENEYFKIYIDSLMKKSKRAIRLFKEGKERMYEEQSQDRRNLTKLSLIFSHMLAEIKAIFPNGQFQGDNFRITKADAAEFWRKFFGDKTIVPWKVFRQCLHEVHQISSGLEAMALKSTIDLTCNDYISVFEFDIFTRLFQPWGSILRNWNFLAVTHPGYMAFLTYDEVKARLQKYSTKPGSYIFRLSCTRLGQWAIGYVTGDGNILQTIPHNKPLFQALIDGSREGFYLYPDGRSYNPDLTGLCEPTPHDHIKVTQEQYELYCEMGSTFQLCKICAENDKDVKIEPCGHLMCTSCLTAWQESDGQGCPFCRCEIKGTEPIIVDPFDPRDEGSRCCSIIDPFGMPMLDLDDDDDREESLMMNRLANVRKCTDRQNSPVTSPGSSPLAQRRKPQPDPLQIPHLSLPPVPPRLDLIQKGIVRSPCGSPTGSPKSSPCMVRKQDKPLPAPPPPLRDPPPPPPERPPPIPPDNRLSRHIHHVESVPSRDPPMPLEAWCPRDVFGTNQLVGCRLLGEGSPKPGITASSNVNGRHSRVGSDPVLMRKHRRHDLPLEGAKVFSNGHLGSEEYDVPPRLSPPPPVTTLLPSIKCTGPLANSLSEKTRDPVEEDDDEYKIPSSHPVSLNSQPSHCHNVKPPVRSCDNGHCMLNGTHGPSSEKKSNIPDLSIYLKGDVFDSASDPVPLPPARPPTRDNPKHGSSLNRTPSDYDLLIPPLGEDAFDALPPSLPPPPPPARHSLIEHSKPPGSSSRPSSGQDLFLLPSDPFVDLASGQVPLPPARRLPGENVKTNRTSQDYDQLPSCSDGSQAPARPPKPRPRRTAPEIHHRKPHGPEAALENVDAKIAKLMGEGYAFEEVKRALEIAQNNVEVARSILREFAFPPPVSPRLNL

As usually defined, the IC50 is the concentration needed to halve the response being measured. In the case of `Cn1cnnc1[C@@H](c1cccc(-n2cc3c(C(F)(F)F)cc(CN4CC5(CCC5)C4)cn3c2=O)c1)C1CCC1` [Compound 286], the IC50 is below 100 nM.

Consider `[2H]C([2H])([2H])n1cnnc1CC1(c2cccc(-n3cc4c(C(F)(F)F)cc([C@H](C)N5CCO[C@H](C)C5)cn4c3=O)c2)COC1` [Compound 287_P1], for which the IC50 was below 100 nM.

`[2H]C([2H])([2H])n1cnnc1CC1(c2cccc(-n3cc4c(C(F)(F)F)cc([C@@H](C)N5CCO[C@H](C)C5)cn4c3=O)c2)COC1` [Compound 287_P2]: the IC50 is below 100 nM.

With `C[C@@H]1CN(Cc2cc(C(F)(F)F)c3cn(-c4cccc([C@H](c5nncn5C)C5CCC5)c4)c(=O)n3c2)CCS1` [Compound 290], the IC50 was below 100 nM.

In the case of `C[C@@H]1CN(Cc2cc(C(F)(F)F)c3cn(-c4cccc([C@H](c5nncs5)C5CCC5)c4)c(=O)n3c2)CCO1` [Compound 291], the IC50 was above 10000 nM.

As to `C[C@H]1CCCN(Cc2cc(C(F)(F)F)c3cn(-c4cccc(Cc5nncn5C)c4)c(=O)n3c2)C1` [Compound 294], the IC50 is 1000 to 3000 nM.

As to `Cn1cnnc1[C@@H](c1cccc(-n2cc3c(C(F)(F)F)cc(CN4CC5(CCCC5)C4)cn3c2=O)c1)C1CCC1` [Compound 295], the IC50 was below 100 nM.

As to `COC1(C)CN(Cc2cc(C(F)(F)F)c3cn(-c4cccc([C@H](c5nncn5C)C5CCC5)c4)c(=O)n3c2)C1` [Compound 296], the IC50 was below 100 nM.

In the case of `Cn1cnnc1[C@@H](c1cccc(-n2cc3c(C(F)(F)F)cc(CN4CC(F)C4)cn3c2=O)c1)C1CCC1` [Compound 297], the IC50 was below 100 nM.

With `Cn1cnnc1[C@@H](c1cccc(-n2cc3c(C(F)(F)F)cc(CN4CC(C)(F)C4)cn3c2=O)c1)C1CCC1` [Compound 298], the IC50 is below 100 nM.

Turning to `Cn1cnnc1[C@@H](c1cccc(-n2cc3c(C(F)(F)F)cc(CN4CC(F)(F)C4)cn3c2=O)c1)C1CCC1` [Compound 299], the IC50 was below 100 nM.

In the case of `C[C@@H]1CN(Cc2cc(C(F)(F)F)c3cn(-c4cccc([C@@H](c5nncs5)C5CCC5)c4)c(=O)n3c2)CCO1` [Compound 300], the IC50 was in the range of 1000 to 3000 nM.

Consider `C[C@@H]1CN(Cc2cc(C(F)(F)F)c3cn(-c4cccc([C@H](c5nncn5C)C5COC5)c4)c(=O)n3c2)CCO1` [Compound 304], for which the IC50 was below 100 nM.

With `Cn1cnnc1C1(c2cccc(-n3cc4c(C(F)(F)F)cc(CN5CCc6ncsc6C5)cn4c3=O)c2)CC2(CC2)C1` [Compound 307], the IC50 is below 100 nM.

For the compound `C[C@H]1CCCN(Cc2cc(C(F)(F)F)c3cn(-c4cccc(C5(c6nncn6C)CC6(CCC6)C5)c4)c(=O)n3c2)C1` [Compound 310], the IC50 is below 100 nM.

Regarding `C[C@H]1CCCN(Cc2cc(C(F)(F)F)c3cn(-c4cccc(C5(c6nncs6)CC6(CC6)C5)c4)c(=O)n3c2)C1` [Compound 311], the IC50 is above 10000 nM.

For the compound `COC1CN(Cc2cc(C(F)(F)F)c3cn(-c4cccc([C@H](c5nncn5C)C5CCC5)c4)c(=O)n3c2)C1` [Compound 312], the IC50 is below 100 nM.

Take `Cn1cnnc1[C@@H](c1cccc(-n2cc3c(C(F)(F)F)cc(CN4CC(C(F)(F)F)C4)cn3c2=O)c1)C1CCC1` [Compound 313]: the IC50 was below 100 nM.

Take `C[C@@H]1CN(Cc2cc(C(F)(F)F)c3cn(-c4cccc(N(c5nncn5C)C5CCC5)c4)c(=O)n3c2)CCO1` [Compound 314]: the IC50 was above 10000 nM.

On to `Cn1cnnc1[C@@H](c1cccc(-n2cc3c(C(F)(F)F)cc(CN4CCc5scnc5C4)cn3c2=O)c1)C1CCC1` [Compound 315], for which the IC50 is below 100 nM.

Consider `Cn1cnnc1[C@@H](c1cccc(-n2cc3c(C(F)(F)F)cc(CN4CCn5cnnc5C4)cn3c2=O)c1)C1CCC1` [Compound 316], for which the IC50 was below 100 nM.

`Cn1cnnc1[C@@H](c1cccc(-n2cc3c(C(F)(F)F)cc(CN4CCn5ncnc5C4)cn3c2=O)c1)C1CCC1` [Compound 317]: the half-maximal inhibitory concentration (IC50) was below 100 nM.

Consider `CO[C@H]1C[C@@](c2cccc(-n3cc4c(C(F)(F)F)cc(CN5CCC[C@H](C)C5)cn4c3=O)c2)(c2nncn2C)C1` [Compound 318], for which the IC50 is below 100 nM.
